Measured values published in ChEMBL document CHEMBL3045557, “A new benzil derivative from Derris scandens: Structure-insecticidal activity study” (2010).
Calls of active or inactive are those of the source. The rule behind the calls is not given here.

Experiments:
[1] = test system: Achaea janata; test: Insecticidal activity against Achaea janata assessed as larval mortality at 4 ug/larva administered through topical application; format: functional
[2] = test system: Achaea janata; test: Insecticidal activity against Achaea janata assessed as larval duration at 2 ug/larva administered through topical application (reference value: 7.3 +/- 0.1 days); format: functional
[3] = test system: Achaea janata; test: Antifeedant activity against Achaea janata at 1 ug/cm2 by conventional no-choice disk method; format: functional, organism-based
[4] = test system: Achaea janata; test: Antifeedant activity against Achaea janata at 2 ug/cm2 by conventional no-choice disk method; format: functional, organism-based
[5] = test system: Achaea janata; test: Antifeedant activity against Achaea janata by conventional no-choice disk method; format: functional
[6] = test system: Achaea janata; test: Toxicity against Achaea janata at 10 ug/cm2 after 24 hr by leaf disk method; format: functional
[7] = test system: Achaea janata; test: Insecticidal activity against Achaea janata assessed as larval duration at 4 ug/larva administered through topical application (reference value: 7.3 +/- 0.1 days); format: functional
[8] = test system: Achaea janata; test: Insecticidal activity against Achaea janata assessed as adult emergence at 2 ug/larva administered through topical application (reference value: 98.8 +/- 0.5 %); format: functional
[9] = test system: Achaea janata; test: Insecticidal activity against Achaea janata assessed as pupal weight at 4 ug/larva administered through topical application (reference value: 696.4 +/- 2.6 mg); format: functional
[10] = test system: Achaea janata; test: Insecticidal activity against Achaea janata assessed as pupal mortality at 4 ug/larva administered through topical application; format: functional
[11] = test system: Achaea janata; test: Insecticidal activity against Achaea janata assessed as pupal duration at 4 ug/larva administered through topical application (reference value: 10.3 +/- 0.1 days); format: functional
[12] = test system: Achaea janata; test: Insecticidal activity against Achaea janata assessed as pupal duration at 2 ug/larva administered through topical application (reference value: 10.3 +/- 0.1 days); format: functional
[13] = test system: Achaea janata; test: Insecticidal activity against Achaea janata assessed as larval mortality at 2 ug/larva administered through topical application; format: functional
[14] = test system: Achaea janata; test: Insecticidal activity against Achaea janata assessed as adult emergence at 4 ug/larva administered through topical application (reference value: 98.8 +/- 0.5 %); format: functional
[15] = test system: Achaea janata; test: Toxicity against Achaea janata after 24 hr by leaf disk method; format: functional
[16] = test system: Achaea janata; test: Insecticidal activity against Achaea janata assessed as adult deformity at 4 ug/larva administered through topical application; format: functional
[17] = test system: Achaea janata; test: Insecticidal activity against Achaea janata assessed as adult deformity at 2 ug/larva administered through topical application; format: functional
[18] = test system: Achaea janata; test: Insecticidal activity against Achaea janata assessed as pupal mortality at 2 ug/larva administered through topical application; format: functional
[19] = test system: Achaea janata; test: Insecticidal activity against Achaea janata assessed as pupal weight at 2 ug/larva administered through topical application (reference value: 696.4 +/- 2.6 mg); format: functional
[20] = test system: Achaea janata; test: Antifeedant activity against Achaea janata at 10 ug/cm2 by conventional no-choice disk method; format: functional
[21] = test system: Achaea janata; test: Insecticidal activity against Achaea janata assessed as larval mortality at 0.2 ug/larva administered through topical application; format: functional
[22] = test system: Achaea janata; test: Antifeedant activity against Achaea janata at 1.25 ug/cm2 by conventional no-choice disk method; format: functional
[23] = test system: Achaea janata; test: Toxicity against Achaea janata at 1.25 ug/cm2 after 24 hr by leaf disk method; format: functional

SMILES: C[C@@H]1O[C@@H](OC[C@H]2O[C@@H](Oc3cc(O)c4c(=O)c(-c5ccc(O)cc5)coc4c3)[C@H](O)[C@@H](O)[C@@H]2O)[C@H](O)[C@H](O)[C@H]1O [SPHAEROBIOSIDE]
- mortality [1]: 31.8%
- Time [2]: 10.8 days
- AFI [3]: inactive
- AFI [4]: inactive
- ED50 [5]: 3.37 microg/cm2
- Activity [6]: 97.8%
- Time [7]: 11.3 days
- Activity [8]: 32.7%
- Activity [9]: 504.8 mg
- mortality [10]: 41.2%
- Time [11]: 14.4 days
- Time [12]: 13.3 days
- mortality [13]: 13%
- Activity [14]: 7.5%
- LD50 [15]: 3.87 microg/cm2
- Activity [16]: 9.5%
- Activity [17]: 0%
- mortality [18]: 36%
- Activity [19]: 508.6 mg
- AFI [20]: 96.2%

SMILES: COc1c2c(c(CC=C(C)C)c(O)c1C(=O)C(=O)c1ccc(O)cc1)OC(C)(C)C=C2 [Derrisdione A]
- mortality [1]: 0%
- Time [2]: 9.3 days
- AFI [3]: inactive
- AFI [4]: inactive
- ED50 [5]: 7.18 microg/cm2
- Activity [6]: 18.2%
- Time [7]: 10.5 days
- Activity [8]: 35.4%
- Activity [9]: 597.8 mg
- mortality [10]: 36.2%
- Time [11]: 12.5 days
- Time [12]: 10.9 days
- mortality [13]: 0%
- Activity [14]: 29.8%
- LD50 [15]: inactive
- Activity [16]: 21.1%
- Activity [17]: 19.5%
- mortality [18]: 29.8%
- Activity [19]: 592.6 mg
- AFI [20]: 58.6%

SMILES: COc1ccc(-c2c(O)c3c(OC)c(CC=C(C)C)c4c(c3oc2=O)C=CC(C)(C)O4)cc1 [SCANDENIN A]
- mortality [1]: 15.2%
- Time [2]: 9.3 days
- AFI [3]: inactive
- AFI [4]: inactive
- ED50 [5]: inactive
- Activity [6]: 0%
- Time [7]: 11.1 days
- Activity [8]: 71.5%
- Activity [9]: 605 mg
- mortality [10]: 32.8%
- Time [11]: 10.5 days
- Time [12]: 10.5 days
- mortality [13]: 11.6%
- Activity [14]: 31.5%
- LD50 [15]: inactive
- Activity [16]: 6.6%
- Activity [17]: 0%
- mortality [18]: 19.8%
- Activity [19]: 601.2 mg
- AFI [20]: 4%

SMILES: COc1c(CC=C(C)C)c2c(c(O)c1C(=O)C(=O)c1ccc(O)cc1)C=CC(C)(C)O2
- mortality [1]: 39.3%
- Time [2]: 7.8 days
- AFI [3]: inactive
- AFI [4]: inactive
- ED50 [5]: 3.31 microg/cm2
- Activity [6]: 100%
- Time [7]: 8.5 days
- Activity [8]: 34.5%
- Activity [9]: 515.4 mg
- mortality [10]: 31.6%
- Time [11]: 13.5 days
- Time [12]: 13 days
- mortality [13]: 15.1%
- Activity [14]: 6.7%
- LD50 [15]: 3.56 microg/cm2
- Activity [16]: 19%
- Activity [17]: 16.2%
- mortality [18]: 20%
- Activity [19]: 524.4 mg
- AFI [20]: 96.8%

SMILES: CC(C)=CCc1c2c(c(O)c3c(=O)c(-c4ccc(O)cc4)coc13)C=CC(C)(C)O2 [WARANGALONE]
- mortality [1]: 0%
- Time [2]: 9.4 days
- AFI [3]: inactive
- AFI [4]: inactive
- ED50 [5]: inactive
- Activity [6]: 6.8%
- Time [7]: 9.8 days
- Activity [8]: 63.6%
- Activity [9]: 572.6 mg
- mortality [10]: 27.6%
- Time [11]: 11.9 days
- Time [12]: 11.7 days
- mortality [13]: 0%
- Activity [14]: 50.3%
- LD50 [15]: inactive
- Activity [16]: 11.8%
- Activity [17]: 5.5%
- mortality [18]: 17.8%
- Activity [19]: 633.2 mg
- AFI [20]: 6.2%

SMILES: CC(C)=CCc1c2c(c(O)c3c(=O)cc(-c4ccc(O)cc4)oc13)C=CC(C)(C)O2 [LAXIFOLIN]
- mortality [1]: 25.2%
- Time [2]: 8.5 days
- AFI [3]: inactive
- AFI [4]: inactive
- ED50 [5]: inactive
- Activity [6]: 0%
- Time [7]: 11.1 days
- Activity [8]: 59.6%
- Activity [9]: 552 mg
- mortality [10]: 27.4%
- Time [11]: 14.1 days
- Time [12]: 10.7 days
- mortality [13]: 20.6%
- Activity [14]: 24.9%
- LD50 [15]: inactive
- Activity [16]: 2.3%
- Activity [17]: 0%
- mortality [18]: 12%
- Activity [19]: 567.2 mg
- AFI [20]: 2.6%

SMILES: O=c1c(-c2ccc(O)cc2)coc2cc(O)cc(O)c12 [GENISTEIN]
- mortality [1]: 48.6%
- Time [2]: 7.8 days
- AFI [3]: inactive
- AFI [4]: inactive
- ED50 [5]: 3.22 microg/cm2
- Activity [6]: 100%
- Time [7]: 10.3 days
- Activity [8]: 27%
- Activity [9]: 532 mg
- mortality [10]: 22.5%
- Time [12]: 13.1 days
- mortality [13]: 31%
- Activity [14]: 7.7%
- LD50 [15]: 3.29 microg/cm2
- Activity [16]: 11.8%
- Activity [17]: 10.6%
- mortality [18]: 17.2%
- Activity [19]: 518 mg
- AFI [20]: 97.7%

SMILES: CC(C)=CCc1cc(-c2coc3cc(O)c(CC=C(C)C)c(O)c3c2=O)ccc1O [LUPALBIGENIN]
- mortality [1]: 18.8%
- Time [2]: 7.7 days
- AFI [3]: inactive
- AFI [4]: inactive
- ED50 [5]: inactive
- Activity [6]: 0%
- Time [7]: 9.7 days
- Activity [8]: 62.7%
- Activity [9]: 587 mg
- mortality [10]: 32.2%
- Time [11]: 12.9 days
- Time [12]: 11.4 days
- mortality [13]: 0%
- Activity [14]: 32.8%
- LD50 [15]: inactive
- Activity [16]: 9.1%
- Activity [17]: 9.5%
- mortality [18]: 26.4%
- Activity [19]: 612 mg
- AFI [20]: 22.4%

SMILES: C/C=C(\C)C(=O)O[C@H]1C[C@@H](OC(C)=O)[C@@]2(C(=O)OC)CO[C@H]3[C@@H](O)[C@@](C)([C@]45O[C@@]4(C)[C@@H]4C[C@H]5O[C@@H]5OC=C[C@@]54O)[C@H]4[C@]1(CO[C@]4(O)C(=O)OC)[C@@H]32 [AZADIRACHTIN A]
- mortality [21]: 100%
- ED50 [5]: 0.72 microg/cm2
- AFI [22]: 100%
- Activity [23]: 100%
- Activity [8]: 98.8%
- Activity [9]: 696.4 mg
- mortality [10]: 0%
- Time [11]: 10.3 days
- Time [12]: 10.3 days
- Activity [14]: 98.8%
- LD50 [15]: 0.67 microg/cm2
- Activity [16]: 0%
- Activity [17]: 0%
- mortality [18]: 0%
- Activity [19]: 696.4 mg

SMILES: CC(C)=CCc1c2c(c3occ(-c4ccc(O)cc4)c(=O)c3c1O)C=CC(C)(C)O2 [OSAJIN]
- mortality [1]: 33.4%
- Time [2]: 10.4 days
- AFI [3]: inactive
- AFI [4]: inactive
- ED50 [5]: 3.18 microg/cm2
- Activity [6]: 98.2%
- Time [7]: 11.2 days
- Activity [8]: 18%
- Activity [9]: 504.8 mg
- mortality [10]: 45.6%
- Time [11]: 15.5 days
- Time [12]: 13.8 days
- mortality [13]: 12.2%
- Activity [14]: 2.9%
- LD50 [15]: 3.54 microg/cm2
- Activity [16]: 15.7%
- Activity [17]: 10%
- mortality [18]: 47.8%
- Activity [19]: 584.8 mg
- AFI [20]: 100%

SMILES: COc1c(CC=C(C)C)c2c(c3occ(-c4ccc(O)cc4)c(=O)c13)C=CC(C)(C)O2 [SCANDINONE]
- mortality [1]: 17%
- Time [2]: 8.2 days
- AFI [3]: inactive
- AFI [4]: inactive
- ED50 [5]: inactive
- Activity [6]: 14.6%
- Time [7]: 10.5 days
- Activity [8]: 65.3%
- Activity [9]: 592 mg
- mortality [10]: 23.4%
- Time [11]: 12.5 days
- Time [12]: 11.8 days
- mortality [13]: 6.8%
- Activity [14]: 34.2%
- LD50 [15]: inactive
- Activity [16]: 5.4%
- Activity [17]: 3.5%
- mortality [18]: 13.6%
- Activity [19]: 621.8 mg
- AFI [20]: 1.3%

SMILES: COc1c(CC=C(C)C)c2c(c3oc(=O)c(-c4ccc(O)cc4)c(O)c13)C=CC(C)(C)O2 [SCANDENIN]
- mortality [1]: 42.6%
- Time [2]: 8.2 days
- AFI [3]: inactive
- AFI [4]: inactive
- ED50 [5]: 3.85 microg/cm2
- Activity [6]: 86.4%
- Time [7]: 10.8 days
- Activity [8]: 75.3%
- Activity [9]: 514.2 mg
- mortality [10]: 24.8%
- Time [11]: 11.3 days
- Time [12]: 11.2 days
- mortality [13]: 0%
- Activity [14]: 18.6%
- LD50 [15]: 5.28 microg/cm2
- Activity [16]: 10.9%
- Activity [17]: 0%
- mortality [18]: 13.5%
- Activity [19]: 550.8 mg
- AFI [20]: 96.5%
